Assay results published in BindingDB's records for doi:10.7270/Q23F4N3R (Burnham Center For Chemical Genomics, 2011).
Counter-ions that a name gives are not always drawn. Where a SMILES comes first, the peptide text is derived from it. Bridges are numbered along the chain shown (N, C = ends). [ ]: non-standard residue; d: D form. The star is where a group is joined. X1 = CCC(C)C(N)C1=NC(C(=O)*)CS1; dOrn = NCCC[C@@H](N)C(=O)O

Assay: HK1 enzyme inhibitors – biochemical, selectivity assay for HKDC1 inhibitor project, dose response (AID 504763)
[1] = inactive by the depositor's call

| Structure (SMILES) | IC50 [µM] | IC50 [1] [µM] |
| --- | --- | --- |
| COc1ccc(OC)c(N2C(=O)C(=Cc3ccco3)C(=O)NC2=S)c1 [MLS001197216] | > 80 |  |
| O=C(O)c1ccc(N=Cc2c(O)ccc3ccccc23)cc1 [MLS001205050] | 70.8 |  |
| COC(=O)c1cc(C)nc2c1C(=O)C(=O)C=C2N1CCOCC1 [MLS001208989] | 16.6 |  |
| CCc1ccc2c(c1)C(NC(C)=O)C(=O)N2CCN1CCOCC1 (stereo unspecified) [MLS001215951] | > 80 |  |
| CC(=O)NC1C(=O)N(CCN2CCOCC2)c2ccc(F)cc21 (stereo unspecified) [MLS001215963] | > 80 |  |
| CC(=O)NC1C(=O)N(CCN2CCOCC2)c2ccc(Cl)cc21 (stereo unspecified) [MLS001215975] | > 80 |  |
| CC(=O)NC1C(=O)N(CCN2CCOCC2)c2ccc(Br)cc21 (stereo unspecified) [MLS001215987] | > 80 |  |
| CCCCC(CC)CNC(=N)NC(=N)NCCCCCCNC(=N)NC(=N)NCC(CC)CCCC (stereo unspecified) [MLS002153995] | 38.7 |  |
| CCC(C)C(N)C1=NC(C(=O)N[C@@H](CC(C)C)C(=O)N[C@H](CCC(=O)O)C(=O)N[C@H](C(=O)N[C@H]2CCCCNC(=O)[C@H](CC(N)=O)NC(=O)[C@@H](CC(=O)O)NC(=O)[C@H](Cc3c[nH]cn3)NC(=O)[C@@H](Cc3ccccc3)NC(=O)[C@H]([C@@H](C)CC)NC(=O)[C@@H](CCCN)NC2=O)[C@@H](C)CC)CS1 (stereo partly specified) [MLS002207255] (X1-L[dE]IK[dOrn]I[dF]H[dD]N; lactam 4-C) | > 80 |  |
| COC1=CC(=O)C=C(OC)C1=O [MLS002207260] | 3.54 |  |
| Oc1c(Cl)c(N=CCc2ccccc2)c(O)c2ccccc12 [MLS002608293] | 18.5 |  |
| Nc1c(Br)cc2c3c(cccc13)-c1ccccc1-2 [MLS002694423] | 9.59 |  |
| Cc1[nH]c2c(=O)c3c(c(=O)c=2[nH]c1C)C1C=CC3CC1 [MLS002701599] | 2.08 |  |
| COC1=CC(=O)c2c(ccc3ncnc(N)c23)C1=O [MLS002701780] | 1.83 |  |
| COP(=O)(OC)c1ccc(NCc2cc(O)ccc2O)cc1 [MLS002702382] |  | 26.2 |
| COc1ccc(NC(=O)CSc2ccc(-c3ccco3)nn2)cc1OC [MLS-0374858.0001] | 17.7 |  |
| CCN(CC)C(=O)c1ccc(C(=O)c2c(C)cc(C)cc2C)cc1 [N,N-diethyl-4-[oxo-(2,4,6-trimethylphenyl)methyl]benzamide] | > 80 |  |
| O=C(NC1=CC(=O)c2ccccc2C1=O)c1ccccc1 [N-(1,4-dioxo-2-naphthalenyl)benzamide] | 4.01 |  |
| COc1ccc(NC(=O)CSc2ccc(-c3ccco3)nn2)c(OC)c1 [N-(2,4-dimethoxyphenyl)-2-[[6-(2-furanyl)-3-pyridazinyl]thio]acetamide] | 5.55 |  |
| COc1ccc(NC(=O)CSc2ccc(-c3cccnc3)nn2)c(OC)c1 [N-(2,4-dimethoxyphenyl)-2-[[6-(3-pyridinyl)-3-pyridazinyl]thio]acetamide] |  | 21.5 |
| O=C(CSc1n[nH]c(-c2cccnc2)n1)Nc1ccc([N+](=O)[O-])cc1Br [N-(2-bromo-4-nitrophenyl)-2-[(5-pyridin-3-yl-1H-1,2,4-triazol-3-yl)sulfanyl]acetamide] | 5.71 |  |
| Cc1cc2nnc(SCC(=O)Nc3cc(S(=O)(=O)N4CCOCC4)ccc3Cl)n2c2ccccc12 [N-(2-chloro-5-morpholin-4-ylsulfonylphenyl)-2-[(5-methyl-[1,2,4]triazolo[4,3-a]quinolin-1-yl)sulfanyl]acetamide] | 18 |  |
| CCOc1ccccc1Nc1nnc(SCc2nnc(-c3cc(OC)c(OC)c(OC)c3)o2)s1 [N-(2-ethoxyphenyl)-5-[[5-(3,4,5-trimethoxyphenyl)-1,3,4-oxadiazol-2-yl]methylthio]-1,3,4-thiadiazol-2-amine] |  | 21.8 |
| O=S(=O)(Nc1ccc(O)c2ccccc12)c1cccs1 [N-(4-oxidanylnaphthalen-1-yl)thiophene-2-sulfonamide] |  | 55.3 |

| Structure (SMILES) | IC50 [µM] | IC50 [1] [µM] |
| --- | --- | --- |
| N#Cc1c(SCC(=O)Nc2nc3ccc(Br)cc3s2)sc2c(O)cc(=O)[nH]c12 [N-(6-bromo-1,3-benzothiazol-2-yl)-2-[(3-cyano-5-hydroxy-7-oxo-4H-thieno[3,2-b]pyridin-2-yl)thio]acetamide] |  | 25.9 |
| Cc1cc(C(F)F)n2ncc(C(=O)NCCc3ccc(Cl)cc3)c2n1 [N-[2-(4-chlorophenyl)ethyl]-7-(difluoromethyl)-5-methylpyrazolo[1,5-a]pyrimidine-3-carboxamide] | 9.04 |  |
| Cc1cc2cc(CCNC(=O)c3ccc(S(=O)(=O)N4CCCC4)cc3)c(O)nc2cc1C [N-[2-(6,7-dimethyl-2-oxo-1H-quinolin-3-yl)ethyl]-4-pyrrolidin-1-ylsulfonylbenzamide] | 15 |  |
| CCN(CC)CCCNC(=O)c1c(O)c2ccccc2n(Cc2ccccc2)c1=O [N-[3-(diethylamino)propyl]-2-oxidanyl-4-oxidanylidene-1-(phenylmethyl)quinoline-3-carboxamide;hydrochloride] | > 80 |  |
| O=C(NC1=C(NC2CCS(=O)(=O)C2)C(=O)c2ccccc2C1=O)c1ccccc1 (stereo unspecified) [N-[3-[(1,1-dioxo-3-thiolanyl)amino]-1,4-dioxo-2-naphthalenyl]benzamide] | 6.33 |  |
| O=C1C(Cl)=C(NC(=O)c2ccccc2)C(=O)C(Cl)=C1NC(=O)c1ccccc1 [N-[4-benzamido-2,5-bis(chloranyl)-3,6-bis(oxidanylidene)cyclohexa-1,4-dien-1-yl]benzamide] |  | 39.2 |
| O=S(=O)(Nc1cc(Sc2nc[nH]n2)c(O)c2ccccc12)c1ccccc1 [N-[4-oxidanyl-3-(1H-1,2,4-triazol-5-ylsulfanyl)naphthalen-1-yl]benzenesulfonamide] |  | 57.8 |
| CCOc1ccc2c(c1)C(NC(C)=O)C(=O)N2CCN1CCOCC1 (stereo unspecified) [N-[5-ethoxy-1-(2-morpholin-4-ylethyl)-2-oxo-3H-indol-3-yl]acetamide;hydrochloride] | > 80 |  |
| CC(=O)NC1C(=O)N(CCN2CCOCC2)c2ccc(C)cc21 (stereo unspecified) [N-[5-methyl-1-(2-morpholin-4-ylethyl)-2-oxidanylidene-3H-indol-3-yl]ethanamide] | > 80 |  |
| CCCCNC(=O)c1sc(=S)n2c1[nH]c(=O)c1ccccc12 [N-butyl-5-oxo-1-thioxo-4,5-dihydro[1,3]thiazolo[3,4-a]quinazoline-3-carboxamide] | 16.1 |  |
| O=C1C(SCCO)=C(SCCO)C(=O)c2ccccc21 [NSC-95397] | 8.11 |  |
| COc1ccc(OC)c2nc(O)c(CCNC(=O)c3cc4ccccc4o3)cc12 [SMR000018515] |  | 23.8 |
| Cc1cc2cc(CCNC(=O)c3ccc(S(=O)(=O)N4CCOCC4)cc3)c(O)nc2cc1C [SMR000025588] | 11.5 |  |
| Cc1ccc(Nc2c3[nH]cccc-3c(=O)n2-c2ccccc2C)cc1C [SMR000028201] | > 80 |  |
| CCCc1nc2oc3c(NCCOCCO)ncnc3c2c2c1COC(C)(C)C2 [SMR000048002] | 11.1 |  |
| O=C1C=C(Nc2ccccc2C(=O)O)c2ccccc2C1=O [SMR000123743] | 16.9 |  |
| CCOC(=O)C1=C(Cc2ccc(OC)cc2)C(=O)c2ccccc2C1=O [SMR000136995] | 12.8 |  |
| Oc1nc2ccccc2n2c(-c3ccccc3)nnc12 [SMR000162081] | 19 |  |
| NC(=O)C1CCN(C2=C(Cl)C(=O)c3ccccc3C2=O)CC1 [SMR000180199] | > 80 |  |
| CCOC(=O)C1=C(c2ccc(OC)cc2)C(=O)c2ccccc2C1=O [SMR000185036] | 2.44 |  |
| Cc1cc(C=C2C(=O)NC(=O)N(c3ccc(Cl)cc3)C2=O)c(C)n1-c1sc2c(c1C#N)CCCC2 [SMR000211212] | > 80 |  |
| CCc1nc2c(c(=O)c3ccccc3n2C)c(=O)n1-c1ccc(F)cc1 [SMR000221205] | 8.41 |  |
| O=C1C=CC(=O)C(C2=C3C(=O)N(CCc4ccccc4)CC(=O)N3CCC2)=C1 [SMR000226463] | 6.85 |  |
| NS(=O)(=O)c1ccc(N=Nc2c(=O)[nH]n3c(=O)c4c([nH]c23)CCCC4)cc1 [SMR000231775] | 12.4 |  |

| Structure (SMILES) | IC50 [µM] | IC50 [1] [µM] |
| --- | --- | --- |
| O=C1NC(=S)N(c2ccc(F)cc2)C(=O)C1=Cc1ccoc1 [SMR000270574] | > 80 |  |
| O=C1C=C(NCc2ccccc2)c2ccccc2C1=O [SMR000282064] | 1.9 |  |
| N=C(NCc1ccc2c(c1)OCO2)NC(=O)c1ccccc1 [SMR000293067] | > 80 |  |
| Oc1ccc(O)c(Cc2nc3ccccc3[nH]2)c1 [SMR000298430] | 7.03 |  |
| O=C(O)c1ccc(NC2=CC(=NS(=O)(=O)c3ccccc3)c3ccccc3C2=O)cc1 [SMR000313157] | 1.63 |  |
| CC(=O)Nc1ccc(NC2=CC(=NS(=O)(=O)c3cccs3)c3ccccc3C2=O)cc1 [SMR000313158] | 4.2 |  |
| O=C(/C=C/c1cccs1)Nc1scc(-c2ccccc2)c1C(=O)O [SMR000364116] | > 80 |  |
| O=C(O)c1ccc2ncsc2c1 [SMR000372672] | > 80 |  |
| Cn1c2ccccc2c(=O)c2c(=O)n(-c3ccc(F)cc3)c(-c3cccs3)nc21 [SMR000439524] | 2.5 |  |
| Cc1nc2c(c(=O)c3ccccc3n2C)c(=O)n1-c1ccc(F)cc1 [SMR000439525] | 8.78 |  |
| CC(C)c1nc2oc3c(NCCO)ncnc3c2c2c1COC(C)(C)C2 [SMR000439744] | 2.82 |  |
| CC[C@H](C)C=C(C)/C=C/C1=CC2=C(Cl)C(=O)[C@@](C)(OC(C)=O)C(=O)C2=CO1 [SMR000470870] | > 80 |  |
| O=C1C=C(N2CCOCC2)c2ccccc2C1=O [SMR000516584] | 1.27 |  |
| COc1cc(/C=C2/C(=O)NN(c3ccc(Cl)c(Cl)c3)C2=O)cc([N+](=O)[O-])c1O [SMR000554908] | > 80 |  |
| CCc1ccc(S(=O)(=O)N=C2C=C(Nc3cccc(C(=O)O)c3)C(=O)c3ccccc32)cc1 [SMR000620248] | 5.83 |  |
| COc1ccc2cc(CCNC(=O)c3ccc(S(=O)(=O)N4CCCC4)cc3)c(O)nc2c1 [SMR000805966] | 7.34 |  |
| Cc1cccc2c1=NC(=O)C=2NNC(=O)c1ccc(NS(=O)(=O)c2cccs2)cc1 [SMR001246714] | 52.6 |  |
| O=C1C=CC(CN=Nc2ccc([N+](=O)[O-])cn2)C(O)=C1 (stereo unspecified) [SMR001527138] | > 80 |  |
| COC1=CC(=O)C(OC)=C(OC)C1=O [SMR001527280] | 6.46 |  |
| C=c1c(NC(C)=O)c(O)c2nc3n(c2c1O)CCC=3OC(=O)COC [SMR001565176] | 2.15 |  |
| COC1=CC(=O)C(C2CC(=O)c3c(O)cc(O)cc3O2)=CC1=O (stereo unspecified) [SMR001565628] |  | 35.9 |
| CN(C)c1ccc(Cc2cc3c(O)ccc(O)c3cc(Cc3ccc(N(C)C)cc3)c2=O)cc1 [SMR001565845] |  | 73.6 |
| COC(=O)c1ccc(CCc2cc(O)c(Br)cc2O)cc1 [SMR001565911] |  | 23.2 |
